Data reported in patent US10370728B2, “Antibiotic susceptibility testing using probes for preribosomal RNA” (THE REGENTS OF THE UNIVERSITY OF CALIFORNIA, priority 2012, dated 2019).
“Also recorded” adds a separate entry of the source.

Key:
[1] = tested on: E. coli clinical urine isolate EC103; assay: Electrochemical sensor assay of pre-rRNA and mature rRNA in E. coli EC103 cultures spiked with antibiotics; format: cell-based; conditions: EC103 culture in MH broth, antibiotic added at 150 or 210 min; 25 μg/ml Rifampicin, 25 μg/ml Chloramphenicol, 4 μg/ml Ciprofloxacin, 16 μg/ml Gentamicin; vs culture without antibiotic
Method: Bacterial Strains and Media. E. coli clinical urine isolate EC103 (Amp^R) was obtained from the University of California-Los Angeles (UCLA) Clinical Microbiology Laboratory with approval from the UCLA and Veterans' Affair Institutional Review Boards and appropriate Health Insurance Portability and Accountability Act exemptions. EC103 was inoculated into Mueller Hinton (MH) broth with 12% glycerol (Becton Dickinson, Sparks, Md.) and stored at -80° C. EC103 was cultured overnight in MH broth with 64 μ[…] (Sigma, St. Louis, Mo.). EC103 was plated on Luria Broth (LB) agar (MOBIO Laboratories Inc., Carlsbad, Calif.) for counting colony-forming units (CFUs). EC103 Growth and Target Copy Number Experiments. Overnight cultures of EC103 were prepared by adding 5 μl of EC103 glycerol stock to 5 ml of MH broth with ampicillin and incubated at 37° C. overnight with shaking. The following day, the EC103 culture was diluted by adding 10 μl of the overnight culture to 100 ml of prewarmed and […] MH broth in a 500 ml flask, followed by incubation at 37° C. with shaking at 250 rpm. Every 30 min, including at 0 min and the overnight culture itself, a 1 ml sample was taken for OD600 measurement and 10-fold serial dilutions (100 μl into 900 μl) were performed in room temperature MH broth. Cell density was determined by plating serial dilutions in triplicate. At each time point, culture samples were transferred to an ice water bath or centrifuged immediately at 4° C. for 3 min at 14,000 rpm. The supernatants were then removed by aspiration, flash frozen in a dry ice-ethanol bath and stored at -80° C. […] Electrochemical detection. […] For thiolated capture probes, disposable 16-sensor bare Au electrode arrays were obtained from GeneFluidics ([…], Calif.). Each sensor of the array consisted of a 2.5 mm diameter central working electrode, surrounded by an Au counter electrode and an Au pseudo-reference electrode. The sensor chip was driven by a computer-controlled Helios multichannel electrochemical workstation (GeneFluidics, […], Calif.). Washing steps were carried out after each application of reagents by applying a stream of deionized H2O to the sensor surface for approximately 2-3 sec followed by 5 sec of drying under a stream of nitrogen. Prior to addition of the first reagent, the bare gold chips were dried as described above. To functionalize the working sensor surface, a fresh mixture of 0.05 μM thiolated capture probe and 300 μM 1,6-hexanedithiol (96%, Sigma, St. Louis, Mo.) was prepared in 10 mM Tris-HCl, 1 mM EDTA and 0.3 M NaCl (pH 8.0) and allowed to stand at room temperature for 10 min. […] This was then combined with the CFU/ml values determined by plating for each time point to generate target molecule number per CFU measurements.

[2] = tested on: susceptible strain of E. coli; assay: Response of pre-rRNA to cefazolin in log phase culture; format: cell-based; conditions: log phase of growth, within 30 min after addition

Molecule	effect on mature rRNA level [1]	effect on pre-rRNA level [1]	drop in the amount of pre-rRNA compared to a culture without the antibiotic [2]
O=C(N[C@H](CO)[C@H](O)c1ccc([N+](=O)[O-])cc1)C(Cl)Cl [chloramphenicol, Chloramphenicol]	decrease of mature rRNA; also recorded: selective decrease in mature rRNA	selective increase in pre-rRNA	
Cc1nnc(SCC2=C(C(=O)O)N3C(=O)[C@@H](NC(=O)Cn4cnnn4)[C@H]3SC2)s1 [cefazolin]			one-log drop
Gentamicin	decrease in the pool of mature rRNA; also recorded: selective decrease in mature rRNA	without affecting the level of pre-rRNA	
